Consider 2 compounds from patent US7692038B2, “Crystalline forms” (Pfizer, Inc., priority 2006, dated 2010).

Series [1] in a line: Relative thermodynamic stability of polymorphs (slurry conversion). It is filed as physicochemical. The following applies: ambient temperature. On the procedure:
The crystalline forms of the invention may be prepared by the processes described below. The skilled person will understand that the preparation of particular polymorphic forms of a compound can sometimes be problematic, and that small changes in reaction conditions can sometimes result in an unexpected product. In particular, the presence of seeds in the atmosphere under which the experiment is conducted can have a decisive outcome on the result. The processes described below, however, are generally reliable. […] The form I polymorph is the more kinetically favoured product at ambient temperature and its formation is encouraged by rapid crystallisation techniques such as rapid cooling. Seeding with the desired product will obviously increase success in these preparations. Preparation of form I material is particularly encouraged by the use of a form I seed which contains a mixture of diastereomers due to epimerisation at the modified aspartate residue.
Pure form II may be prepared by slurrying a mixture of forms I and II in acetonitrile at room temperature until full conversion has taken place (typically a few days, e.g. 3 days). The product is then filtered off and dried (e.g. in a vacuum oven). The following procedures are illustrative.
A 40:60 mixture (by weight) of forms I and II was slurried in acetonitrile and left for three days. […]

Series [2] is described as follows: Hygroscopicity by dynamic vapour sorption (DVS), water sorption and desorption. In kind it is physicochemical. As to conditions: 30° C. On the procedure: Hygroscopicity was assessed for forms I and II using dynamic vapour sorption (DVS). The samples were characterised using a Surface Measurement Systems Ltd, dynamic vapour sorption equipment, model DVS-1. The analysis was conducted at 30° C. with a nitrogen gas flow of 200 cc/min. Water sorption and desorption were determined in the range 0 to 90% relative humidity (RH) using 15% RH intervals. Exposure was for a minimum of two hours at each humidity, or until the rate of weight change was less than 0.0005%/minute (averaged over 10 minutes). Sample weights were in the range 23-36 mg. The samples were weighed using a CAHN D-200, seven place digital recording balance, which is an integral part of the equipment. The results are tabulated below in Tables 6 and 7 and plotted in FIGS. 15 and 16.

For `C[C@H](NC(=O)C(=O)Nc1ccccc1C(C)(C)C)C(=O)N[C@@H](CC(=O)O)C(=O)COc1c(F)c(F)cc(F)c1F` [Form II, (3S)-3-[N—(N′-(2-tert-butylphenyl)oxamyl)alaninyl]amino-5-(2′,3′,5′,6′-tetrafluorophenoxy)-4-oxopentanoic acid], the “Thermodynamic stability of the polymorph” value in series [1] is listed as “most thermodynamically stable”. Also, the “Water Sorption (% w/dry w) Desorption” value came to 0.009 % w/dry w in series [2] (15% RH); 0.015 % w/dry w in series [2] (30% RH); 0.021 % w/dry w in series [2] (45% RH); 0.031 % w/dry w in series [2] (60% RH); 0.044 % w/dry w in series [2] (75% RH); 0.057 % w/dry w in series [2] (90% RH). The “Water Sorption (% w/dry w) Sorption” value in series [2] (15% RH) was 0.007 % w/dry w; in series [2] (30% RH), 0.014 % w/dry w; in series [2] (45% RH) it was 0.020 % w/dry w; in series [2] (60% RH) it was 0.029 % w/dry w; in series [2] (75% RH) it was 0.042 % w/dry w; in series [2] (90% RH), 0.057 % w/dry w.
With `C[C@H](NC(=O)C(=O)Nc1ccccc1C(C)(C)C)C(=O)N[C@@H](CC(=O)O)C(=O)COc1c(F)c(F)cc(F)c1F` [Form I, (3S)-3-[N—(N′-(2-tert-butylphenyl)oxamyl)alaninyl]amino-5-(2′,3′,5′,6′-tetrafluorophenoxy)-4-oxopentanoic acid], the “Water Sorption (% w/dry w) Desorption” value was determined as 0.015 % w/dry w in series [2] (15% RH); 0.025 % w/dry w in series [2] (30% RH); 0.037 % w/dry w in series [2] (45% RH); 0.055 % w/dry w in series [2] (60% RH); 0.105 % w/dry w in series [2] (75% RH); 0.208 % w/dry w in series [2] (90% RH). Further, the “Water Sorption (% w/dry w) Sorption” value in series [2] (15% RH) came to 0.018 % w/dry w; in series [2] (30% RH), 0.028 % w/dry w; in series [2] (45% RH), 0.049 % w/dry w; in series [2] (60% RH) it was 0.072 % w/dry w; in series [2] (75% RH), 0.110 % w/dry w; in series [2] (90% RH), 0.208 % w/dry w.
